Patent US6750330B1, “Lyophilized tubulins” (priority 1998, dated 2004)

Test system: MAP-rich tubulin
Experiment: 96-well plate polymerization assay of tubulin ligands with lyophilized active tubulin
Format: biochemical, bovine
Conditions: for rate of polymerization with increasing concentration: 20 minutes at 24° C., 100 μg/well MAP-rich tubulin; for effect on microtubule polymerization (O.D. 340 nm): 60 minutes at 24° C., 96-well plate
Experimental: The dried powder was resuspended to 1 mg/ml protein in the G-PEM buffer that contained different tubulin ligands. The reactions were incubated at 24° C. and the optical density was determined between T=O and T=60 min. Wells A1, A2—duplicate control reactions; wells B1, B2—Duplicate 3 uM nocodazole reactions, and wells C1, C2—Duplicate 3 uM paclitaxel reactions. Other duplicate wells contained buffer with a random concentration of nocodazole between 0-30 uM.
Similar protocols were performed as in FIG. 9 legend except that paclitaxel was present at different concentrations and assays were performed in triplicate. Average nucleation (Onset) times, polymerization rates and maximum OD340 nm were compared to the control reactions (no drug) using CytoDYNAMIX Screen™ data analysis package (Cytoskeleton, Inc.).
Similar protocols were performed as in FIG. 9 legend except that nocodazole was present at different concentrations and assays were performed in triplicate. Average nucleation (Onset) times, polymerization rates and maximum OD340 nm were compared to the control reactions (no drug) using CytoDYNAMIX Screen™ data analysis package (Cytoskeleton, Inc.).
Nocodazole is similarly used as a negative control since it depolymerizes microtubules. Substances that may potentially have an effect on microtubule polymerization can be assayed by this method in which the optical density was measured at 340 nm over 60 minutes at a temperature sufficient to support polymerization (i.e., 15-45° C., preferably 24° C. for MAP-rich or 37° C. for pure tubulin).
MAP-rich tubulin (100 μg/well) was lyophilized under the optimal conditions described in Example 1, in a 96-well plate. Ninety-six wells in a 96-well plate of lyophilized tubulin can be simultaneously reconstituted and their polymerization measured (See FIG. 8). […] In a similar manner, using an 8-channel hand held pipettor, various random nocodazole concentrations were tested for activity. In addition, controls were added to the assay. […] Nocodazole was similarly used as a negative control since it depolymerizes microtubules. The optical density was measured at 340 nm over 60 minutes at 24° C. as an indication of microtubule polymerization (See FIG. 9).
Paclitaxel and nocodazole, anti-tumor agents, were assayed in G-PER buffer with lyophilized active tubulin.

Row | SMILES | rate of polymerization with increasing concentration | effect on microtubule polymerization (O.D. 340 nm)
1 | COC(=O)Nc1nc2ccc(C(=O)c3cccs3)cc2[nH]1 [nocodazole] | decrease in the rate of polymerization | negative
2 | CC(=O)O[C@H]1C(=O)[C@@]2(C)[C@H]([C@H](OC(=O)c3ccccc3)[C@]3(O)C[C@H](OC(=O)[C@H](O)[C@@H](NC(=O)c4ccccc4)c4ccccc4)C(C)=C1C3(C)C)[C@]1(OC(C)=O)CO[C@@H]1C[C@@H]2O [paclitaxel] | increased rate of polymerization | enhancing
